# Experiment: Stability experiment of the orthorhombic crystal (PXRD before and after storage)
# Format: physicochemical
# Conditions: high-temperature (60±2° C.) oven, 90±5% humidity, 4500±5001 ux light intensity, 10 days, samples on 5th and 10th days
# Description: A further object of the application is to investigate stability of the orthorhombic crystal of the 2-[(2,4-dichlorophenyl)methyl]-4,4-dimethyl-3-isoxazolidinone compound (Formula I). The orthorhombic crystal is stored in a high-temperature (60±2° C.) oven, in a 90±5% humidity condition, and under 4500±5001 ux light intensity for 10 days, respectively, during which samples are collected on the 5th and 10th days for a PXRD analysis.
# A PXRD diffractometer (X′Pert PRO, PNAlytical, Netherlands) is employed to collect the following specific data: Cu anode=40 kV, 150 mA, 2θ scanning range=0°˜45°, scanning speed=8°/min, step size=0.02°, divergence slit (DS)=1°, anti-scattering slit=(SS) 1°, and receiving slit (RS)=0.15 mm.
# The crystals of the 2-[(2,4-dichlorophenyl)methyl]-4,4-dimethyl-3-isoxazolidinone compound (Formula I) obtained in embodiments 3, 4, 5, and 6 are respectively placed in a high-temperature (60±2° C.) oven, in a 90±5% humidity condition, and under 4500±5001 ux light intensity for 10 days. Samples are collected on the 5th and 10th days for the PXRD analysis.
smiles,measurement,setting,value
"CC1(C)CON(Cc2ccc(Cl)cc2Cl)C1=O [orthorhombic crystal, 2-[(2,4-dichlorophenyl)methyl]-4,4-dimethyl-3-isoxazolidinone]",stability of the crystal form (PXRD before and after storage),,"stable crystal form under high temperature, humidity and light intensity conditions"
same,stability of the crystal form (PXRD before and after storage),listed as orthorhombic crystals,"remain stable under high temperature, high humidity, and light intensity"

# Source: US12162843B2, “High-purity thermostable crystal form of substituted 3-isoxazolidinone compound, preparation method therefor and application thereof” (ZHEJIANG ZHUJI UNITED CHEMICALS CO., LTD., priority 2019, dated 2024)
